# According to patent US20250276962A1, “CONTRACEPTIVE COMPOUNDS AND METHODS” (Regents of the University of Minnesota, priority 2021, published 2025):
# “And” between values parts separate entries of the source, which are not always exact repeats. Equal entries are not always repeated. “Also recorded” adds a separate entry of the source. Where two headings read alike, the source gives them in different places.
# Key:
# [1] = Solubility in PBS at pH 7.4; type: physicochemical
# human liver fibroblast = type: cell-based
# From the text: The results were negative.
# male cynomolgus macaques = test: Cynomolgus macaque study with sperm counts per ejaculate as readout; type: in vivo
# Description: Sperm counts were assessed weekly or bi-weekly in fresh semen samples obtained with electroejaculation. 3 macaques were orally dosed with 2.5 mg/kg, which is the dose equivalent to 10 mg/kg in mouse based on body surface area. […] The animals are now in recovery to assess reversibility (data not shown). […] After dosing for another week at 7.5 mg/kg/day, individual sperm counts were 132, 38 and 12×10^6 showing efficacy in all 3 animals. Since day 38, the animals have been in recovery to assess reversibility. Four weeks after the animals received the last dose, individual sperm counts were 297, 71 and 300×10^6 showing 50% reversibility in animal #1, 65% reversibility in animal #2 and 100% reversibility in animal #3.
# Single dose PK, mouse = type: in vivo
# From the text: Single dose pharmacokinetics (PK) studies at therapeutic dose levels: Presented are area under the curve (AUC) values to better compare exposure levels between species.
# […]. […] This value serves as the basis to calculate multiples over efficacy across species.
# Single dose PK, marmoset = type: in vivo; conditions: male, monkey, plasma, Marmoset 5 mg/kg
# Description: (§1) NHP studies: Three young adult male marmosets received a single 5 mg/kg dose of the compound of Example land the compound of 3 sexually mature male cynomolgus macaques received a single dose of 0.5, 1, 5 and 10 mg/kg.
# [2] = Single dose PK, cynomolgus macaque; type: in vivo
# Description: as §1
# [3] = Repeat dose PK (14 days), rat; type: in vivo; conditions: male, Sprague-Dawley, plasma, oral, Day 14, read-out: AUC0-48
# [4] = Repeat dose PK (14 days), dog; type: in vivo; conditions: male, Beagle, plasma, oral, Day 14
# Description: […]. In this study, AUC0-inf was measured.
# KCNQ1 = test: in vitro; type: cell-based
# [5] = biological target: cannabinoid receptor 2 (CB2) (Homo sapiens, UniProt P34972); test: Off-target screening, CB2; type: cell-based
# NaV1.5 = NaV1.5 (Homo sapiens, UniProt Q14524); test: Off-target screening, NaV1.5; type: cell-based; conditions: 10 μM
# [6] = biological target: NaV1.5 (cardiac sodium ion channel) (Homo sapiens, UniProt Q14524); test: Off-target screening, NaV1.5; type: cell-based
# cyclooxygenase 1 (COX1) = cyclooxygenase 1 (COX1) (Homo sapiens, UniProt P23219); test: Off-target screening, COX1; type: biochemical
# [7] = biological target: cannabinoid receptor 1 (CB1) (Homo sapiens, UniProt P21554); test: Off-target screening, CB1; type: cell-based
# [8] = Stability in rat hepatocytes; type: in vitro ADME; conditions: read-out: Half-life (T1/2) Hepatocytes (Phase I and Phase II metabolism) (converted)
# [9] = Stability in dog hepatocytes; type: in vitro ADME; conditions: read-out: Half-life (T1/2) Hepatocytes (Phase I and Phase II metabolism)
# [10] = Stability in monkey liver microsomes; type: in vitro ADME; conditions: read-out: Half-life (T1/2) Liver microsomes (Phase I metabolism) (converted)
# [11] = Stability in rabbit liver microsomes; type: in vitro ADME; conditions: read-out: Half-life (T1/2) Liver microsomes (Phase I metabolism) (converted)
# [12] = Stability in dog liver microsomes; type: in vitro ADME; conditions: read-out: Half-life (T1/2) Liver microsomes (Phase I metabolism)
# in vitro [13] = conditions: human
# in vitro [14] = conditions: human hepatocytes
# in vivo = conditions: male, Beagle, dog, oral
# physchem = conditions: pH 7.4
# [15] = Single dose toxicity, mouse; conditions: male, CD-1, mouse, in vivo, Maximum tolerated dose (MTD), male CD-1 mice, highest dose level tested
# male CD-1 mice = test: Mouse studies with epididymal sperm count as readout; conditions: 10 mg/kg/day for 4 weeks
# cyclooxygenase 1 (COX1), sequence (P23219 24-599, species assumed): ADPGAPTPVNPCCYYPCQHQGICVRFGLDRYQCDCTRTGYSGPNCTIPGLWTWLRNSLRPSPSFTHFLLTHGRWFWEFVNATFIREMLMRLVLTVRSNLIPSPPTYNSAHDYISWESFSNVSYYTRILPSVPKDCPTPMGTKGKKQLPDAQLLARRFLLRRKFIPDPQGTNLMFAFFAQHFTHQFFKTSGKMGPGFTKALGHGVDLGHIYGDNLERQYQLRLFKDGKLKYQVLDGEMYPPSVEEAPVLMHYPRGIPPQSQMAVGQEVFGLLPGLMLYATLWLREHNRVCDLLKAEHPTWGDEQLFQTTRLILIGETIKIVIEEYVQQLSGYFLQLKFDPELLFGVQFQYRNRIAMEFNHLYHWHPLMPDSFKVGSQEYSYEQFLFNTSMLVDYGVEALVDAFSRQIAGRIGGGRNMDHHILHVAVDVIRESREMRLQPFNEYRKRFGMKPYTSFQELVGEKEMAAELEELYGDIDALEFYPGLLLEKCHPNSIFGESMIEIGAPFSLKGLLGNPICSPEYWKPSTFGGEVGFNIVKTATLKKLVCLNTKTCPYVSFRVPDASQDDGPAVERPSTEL
# cannabinoid receptor 2 (CB2), sequence (P34972 whole entry, species assumed): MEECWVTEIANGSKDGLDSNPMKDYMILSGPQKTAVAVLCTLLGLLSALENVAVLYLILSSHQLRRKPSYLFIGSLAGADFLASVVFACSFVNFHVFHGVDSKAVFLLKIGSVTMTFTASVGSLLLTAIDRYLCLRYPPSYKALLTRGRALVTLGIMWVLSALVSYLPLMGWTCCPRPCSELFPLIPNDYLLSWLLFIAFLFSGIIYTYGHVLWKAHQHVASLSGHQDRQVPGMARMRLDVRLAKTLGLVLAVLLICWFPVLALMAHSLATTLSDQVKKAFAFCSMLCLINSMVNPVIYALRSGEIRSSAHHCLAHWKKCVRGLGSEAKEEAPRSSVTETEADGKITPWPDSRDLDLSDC
# cannabinoid receptor 1 (CB1), sequence (P21554 whole entry, species assumed): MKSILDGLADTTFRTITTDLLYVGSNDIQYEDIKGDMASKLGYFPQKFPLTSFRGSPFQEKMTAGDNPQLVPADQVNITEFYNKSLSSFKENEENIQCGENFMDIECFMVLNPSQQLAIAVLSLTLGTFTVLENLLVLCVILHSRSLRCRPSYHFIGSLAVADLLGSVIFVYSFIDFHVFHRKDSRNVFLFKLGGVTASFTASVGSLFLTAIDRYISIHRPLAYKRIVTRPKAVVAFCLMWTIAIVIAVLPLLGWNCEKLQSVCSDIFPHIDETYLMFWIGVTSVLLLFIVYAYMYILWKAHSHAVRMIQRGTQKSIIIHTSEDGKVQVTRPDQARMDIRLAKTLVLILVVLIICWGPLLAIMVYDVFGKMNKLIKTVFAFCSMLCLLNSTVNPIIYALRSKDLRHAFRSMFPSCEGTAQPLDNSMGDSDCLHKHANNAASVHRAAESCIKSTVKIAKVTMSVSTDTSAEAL
# NaV1.5 (cardiac sodium ion channel), sequence (Q14524 whole entry): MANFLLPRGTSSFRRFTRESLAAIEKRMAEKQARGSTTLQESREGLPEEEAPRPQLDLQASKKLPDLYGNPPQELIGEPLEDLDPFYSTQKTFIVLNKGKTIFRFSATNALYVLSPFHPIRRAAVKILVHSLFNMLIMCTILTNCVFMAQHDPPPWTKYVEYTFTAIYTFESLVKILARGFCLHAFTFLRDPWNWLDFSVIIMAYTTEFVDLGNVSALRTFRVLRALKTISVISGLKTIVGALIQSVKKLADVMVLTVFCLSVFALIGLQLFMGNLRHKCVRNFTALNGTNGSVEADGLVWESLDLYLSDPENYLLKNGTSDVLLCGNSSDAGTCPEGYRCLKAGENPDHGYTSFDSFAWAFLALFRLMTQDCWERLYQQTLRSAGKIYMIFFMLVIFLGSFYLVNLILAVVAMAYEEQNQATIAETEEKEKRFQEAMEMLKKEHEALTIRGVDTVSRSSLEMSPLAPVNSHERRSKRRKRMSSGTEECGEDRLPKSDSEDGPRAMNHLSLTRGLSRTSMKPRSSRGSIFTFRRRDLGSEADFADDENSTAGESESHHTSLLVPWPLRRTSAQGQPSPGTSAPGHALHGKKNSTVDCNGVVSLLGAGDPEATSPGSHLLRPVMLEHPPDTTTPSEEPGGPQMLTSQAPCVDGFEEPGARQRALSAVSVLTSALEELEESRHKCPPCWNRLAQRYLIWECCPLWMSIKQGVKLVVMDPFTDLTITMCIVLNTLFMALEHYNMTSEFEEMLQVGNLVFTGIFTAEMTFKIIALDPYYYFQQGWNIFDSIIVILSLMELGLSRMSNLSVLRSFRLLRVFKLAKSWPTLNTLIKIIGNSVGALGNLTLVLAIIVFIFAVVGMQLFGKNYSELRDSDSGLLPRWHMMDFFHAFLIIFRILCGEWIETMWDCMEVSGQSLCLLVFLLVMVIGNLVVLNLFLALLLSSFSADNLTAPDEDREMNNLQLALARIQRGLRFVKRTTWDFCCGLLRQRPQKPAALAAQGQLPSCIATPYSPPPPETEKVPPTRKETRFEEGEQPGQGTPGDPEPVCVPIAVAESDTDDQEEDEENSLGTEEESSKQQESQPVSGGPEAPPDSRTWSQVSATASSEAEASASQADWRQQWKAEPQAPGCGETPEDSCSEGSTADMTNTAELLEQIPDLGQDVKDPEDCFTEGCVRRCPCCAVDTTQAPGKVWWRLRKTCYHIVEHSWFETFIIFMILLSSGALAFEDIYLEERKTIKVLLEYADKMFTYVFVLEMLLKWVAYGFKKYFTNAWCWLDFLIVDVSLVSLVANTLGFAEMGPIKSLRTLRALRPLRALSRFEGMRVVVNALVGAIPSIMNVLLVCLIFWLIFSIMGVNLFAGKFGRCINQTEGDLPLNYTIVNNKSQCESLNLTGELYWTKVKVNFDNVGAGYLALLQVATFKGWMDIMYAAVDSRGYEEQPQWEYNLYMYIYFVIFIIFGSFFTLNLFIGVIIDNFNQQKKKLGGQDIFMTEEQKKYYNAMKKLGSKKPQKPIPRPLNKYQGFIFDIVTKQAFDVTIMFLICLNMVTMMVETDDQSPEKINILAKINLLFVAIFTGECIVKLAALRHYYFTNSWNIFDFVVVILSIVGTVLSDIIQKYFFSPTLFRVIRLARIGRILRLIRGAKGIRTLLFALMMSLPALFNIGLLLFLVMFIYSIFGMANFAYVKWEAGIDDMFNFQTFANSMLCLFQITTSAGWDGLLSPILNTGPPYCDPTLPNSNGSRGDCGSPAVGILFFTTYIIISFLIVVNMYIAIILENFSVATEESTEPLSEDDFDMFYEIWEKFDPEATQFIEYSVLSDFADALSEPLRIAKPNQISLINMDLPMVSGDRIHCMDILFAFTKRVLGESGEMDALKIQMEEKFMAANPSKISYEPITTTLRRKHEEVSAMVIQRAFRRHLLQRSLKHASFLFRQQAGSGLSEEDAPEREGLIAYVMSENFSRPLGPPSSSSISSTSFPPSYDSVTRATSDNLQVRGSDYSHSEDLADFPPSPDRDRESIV
smiles,measurement,setting,value
"Cc1ccc(C2=CC(C)(C)Oc3ccc(-c4ccc(-c5ccc(C(=O)[O-])cc5)[nH]4)cc32)cc1.[Na+] [Example 1, Sodium 4-(5-(2,2-dimethyl-4-(p-tolyl)-2H-chromen-6-yl)-1H-pyrrol-2-yl)benzoate]",solubility,[1],78.57 µM
same,Human liver (lung) fibroblast assay result,human liver fibroblast,negative
same,Human liver (lung) fibroblast assay result,human liver fibroblast; human,The compound of Example 1 showed no cytopathic effects in HepG2 and human
same,Individual sperm counts per ejaculate,"male cynomolgus macaques; second cohort (initial 598, 203 and 277), 5 mg/kg/day, after 14 days, 5 mg/kg/day",377 ×10^6 and 62 ×10^6 and 134 ×10^6
same,Individual sperm counts per ejaculate,"male cynomolgus macaques; second cohort, 5 mg/kg/day, after 30 days, 5 mg/kg/day",262 ×10^6 and 28 ×10^6 and 70 ×10^6
same,Individual sperm counts per ejaculate,"male cynomolgus macaques; second cohort, four weeks after the last dose",297 ×10^6 and 71 ×10^6 and 300 ×10^6
same,Reversibility of sperm count reduction,"male cynomolgus macaques; second cohort, four weeks after the last dose, animal #1, #2, #3",50% and 65% and 100%
same,AUC0-inf in plasma,"Single dose PK, mouse; male CD-1 mice, single 10 mg/kg dose","6,681 h*(ng/mL)"
same,AUC(0-inf),"Single dose PK, mouse; male, CD-1, plasma, Mouse 10 mg/kg, single dose",6.68 µg·h/mL
same,AUC(0-t),"Single dose PK, mouse; male, CD-1, plasma, Mouse 10 mg/kg, read-out: AUC0-48",6.58 µg·h/mL
same,AUC(0-inf),"Single dose PK, marmoset",6.92 µg·h/mL
same,AUC(0-inf),[2]; Cyno 1 mg/kg,"33,394 h * ng * mL^−1"
same,AUC(0-inf),[2]; Cyno 5 mg/kg,"175,202 h * ng * mL^−1"
same,AUC(0-inf),[2]; Cyno 10 mg/kg,"293,423 h * ng * mL^−1"
same,AUC(0-inf),"[2]; male, cynomolgus monkey, plasma, Cyno 0.5 mg/kg, read-out: AUC0-inf",23.4 µg·h/mL
same,AUC(0-t),[3]; Rat 25 mg/kg/day,78.8 µg·h/mL
same,AUC(0-t),[3]; Rat 50 mg/kg/day,91.1 µg·h/mL
same,AUC(0-inf),[4]; Dog 25 mg/kg/day,752 µg·h/mL
same,AUC(0-inf),[4]; Dog 100 mg/kg/day,14100 µg·h/mL
same,inhibition at 10 µM,KCNQ1,22.8%
same,IC50,[5],23.3 µM
same,inhibition at 10 µM,[5]; 10 μM,34.3%
same,inhibition at 10 µM,NaV1.5,37.4%
same,IC50,[6],8.8 µM
same,IC50,cyclooxygenase 1 (COX1),1.41 µM
same,inhibition at 10 µM,cyclooxygenase 1 (COX1); read-out: Inhibition of COX1,78.9%
same,IC50,[7],1.8 µM
same,inhibition at 10 µM,[7]; 10 μM,90.5%
same,half-life,[8],7.9 h
same,half-life,[9],> 10 h
same,half-life,[10],23.1 h
same,half-life,[11],19.6 h
same,half-life,[12],> 23.1 h
same,Half-life (T1/2) Liver microsomes (Phase I metabolism),human,9.5 h
same,CLint (μL/min/mg protein),pooled human liver microsomes,2.43 μL/min/mg protein
same,T1/2,pooled human liver microsomes,9.494 h
same,HepG2 cytotoxicity assay result,HepG2,negative
same,HepG2 cytotoxicity assay result,HepG2; human,The compound of Example 1 showed no cytopathic effects in HepG2 and human
same,Safety margin,"male Sprague-Dawley rats; male, Sprague-Dawley, rat, in vivo, 14 days",at least 10 ×
same,Tolerability after dose reduction to 75 mg/kg,"male Sprague-Dawley rats; rat, in vivo","overall health and activity improved, they gained weight, and had normal CBC and clinical chemistry"
same,Tolerability,"male Sprague-Dawley rats; rat, in vivo, 250 mg/kg/day",not tolerated
same,Tolerability,"male Sprague-Dawley rats; rat, in vivo, po, 25 mg/kg/day",tolerated well
same,Tolerability,"male Sprague-Dawley rats; rat, in vivo, po, 50 mg/kg/day",tolerated well
same,Tolerated dose on repeated dosing for 14 days,male Sprague-Dawley rats; rats,50 to 75 mg/kg
same,Tolerability,"male Beagle dogs; dog, in vivo, 50 mg/kg/day",not tolerated
same,Tolerability,"male Beagle dogs; dog, in vivo, 100 mg/kg/day",one dog did not show any signs of toxicity
same,Tolerability,"male Beagle dogs; dog, in vivo, po, 25 mg/kg/day",tolerated well
same,Tolerated dose on repeated dosing for 14 days,male Beagle dogs; dogs,25 mg/kg
same,Tolerability,"male Beagle dogs; male, Beagle, dog, in vivo, 100 mg/kg/day, 14 days",The other dog lost weight as of Day 12 until termination
same,Safety margin,"male Beagle dogs; male, Beagle, dog, in vivo, 14 days",at least 10 ×
same,CLint scaled,in vitro [13]; microsomes,3.05 mL/min/kg
same,half-life,in vitro [13]; pooled liver microsomes,9.5 h
same,CLint scaled,in vitro [14],6.75 mL/min/kg
same,MTD at 2 weeks,in vivo,25 mg/kg
same,logD,physchem,3.5
same,MTD,[15],> 1000 mg/kg
same,Effect on sperm counts and recovery,"male CD-1 mice; 2 weeks recovery, 10 mg/kg/day",Sperm counts started to increase; also recorded: reversibly reduces sperm counts
same,Epididymal sperm counts,male CD-1 mice; 24 h after last dose,0.51±0.27 ×10^7
same,Reduction of epididymal sperm counts,male CD-1 mice; 24 h after last dose,90%
